Legend:
human DGAT1 = biological target: T1, human DGAT1 (Homo sapiens, UniProt O75907); assay: Human Enzyme Assay (DGAT1 activity, 14C oleoyl coenzyme A, insect cell membranes); format: biochemical; details: human DGAT1 expressed in sf9 insect cell membranes
T1 construct: made in house; host or cells: Sf9 insect cells, recombinant baculovirus; membrane fraction
T1 sequence (O75907 1-488): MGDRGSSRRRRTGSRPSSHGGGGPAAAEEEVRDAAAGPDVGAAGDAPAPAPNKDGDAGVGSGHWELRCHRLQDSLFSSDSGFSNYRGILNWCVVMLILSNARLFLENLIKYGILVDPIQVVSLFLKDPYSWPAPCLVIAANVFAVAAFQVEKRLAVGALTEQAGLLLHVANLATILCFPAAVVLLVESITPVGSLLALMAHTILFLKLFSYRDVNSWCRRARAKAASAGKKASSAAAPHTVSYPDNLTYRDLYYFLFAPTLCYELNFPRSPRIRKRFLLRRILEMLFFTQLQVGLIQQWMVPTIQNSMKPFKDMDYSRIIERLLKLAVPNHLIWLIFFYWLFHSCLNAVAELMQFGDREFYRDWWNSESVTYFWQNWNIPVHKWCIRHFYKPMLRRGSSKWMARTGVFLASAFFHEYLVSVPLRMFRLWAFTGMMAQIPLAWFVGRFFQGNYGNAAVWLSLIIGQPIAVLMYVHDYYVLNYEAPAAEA
Protocol: The in vitro assay to identify DGAT1 inhibitors uses human DGAT1 expressed in insect cell membranes as the enzyme source (Proc. Natl. Acad. Sci. 1998, 95, 13018-13023). Briefly, sf9 cells were infected with recombinant baculovirus containing human DGAT1 coding sequences and harvested after 48 h. Cells were lysed by sonication and membranes isolated by centrifuging at 28000 rpm for 1 h at 4° C. on a 41% sucrose gradient. The membrane fraction at the interphase was collected, washed, and stored in liquid nitrogen.
DGAT1 activity was assayed by a modification of the method described by Coleman (Methods in Enzymology 1992, 209, 98-102). Compound at 1-10 μM was incubated with 0.4 μg membrane protein, 5 mM MgCl2, and 100 μM 1,2 dioleoyl-sn-glycerol in a total assay volume of 200 μl in plastic tubes. The reaction was started by adding ^14C oleoyl coenzyme A (30 μM final concentration) and incubated at room temperature for 30 minutes. The reaction was stopped by adding 1.5 mL 2-propanol:heptane:water (80:20:2). Radioactive triolein product was separated into the organic phase by adding 1 mL heptane and 0.5 mL 0.1 M carbonate buffer pH 9.5. DGAT1 activity was quantified by counting aliquots of the upper heptane layer by liquid scintillography.

ACAT = ACAT enzyme assay; selectivity for DGAT over ACAT; format: biochemical; details: DGAT vs ACAT enzyme assays
Protocol: 3) The ability of compounds to inhibit ACAT can be measured using a modification of the enzyme assay described in Billheimer (1985) Methods in Enzymology, 111, 286-293. The test assesses the ability of a test compound to inhibit the esterification of cholesterol by measuring the amount of radiolabeled cholesteryl oleate formed from radiolabeled oleoyl CoA. Compound was incubated with 10 μg membrane protein and 267 μM cholesterol. After a 5 minute pre-incubation at 37° C. the reaction was started by adding ^14C oleoyl coenzyme A (50 μM final concentration) and incubated at 37° C. for a further 30 minutes. The reaction was stopped by adding 2-propanol:heptane (12:1). Radioactive cholesteryl ester product was separated into the organic phase by adding heptane and 1M carbonate buffer pH 9.5. ACAT activity was quantified by counting aliquots of the upper heptane layer by liquid scintillography.
The selectivity of a compound to inhibit DGAT over inhibition of ACAT may be defined as the ratio of IC50 values generated in the DGAT and ACAT enzyme assays for a particular compound.

IC50 (human DGAT1): 0.017 µM | selectivity to inhibit DGAT over inhibition of ACAT (ratio of IC50 values in the DGAT and ACAT enzyme assays) (ACAT): 310 fold
Compound: O=C(Nc1ccc(O[C@H]2CC[C@H](C(=O)O)CC2)cc1)c1nnc(Nc2ccc(F)cc2)o1 [Example 13, trans-4-{4-[({5-[(4-fluorophenyl)amino]-1,3,4-oxadiazol-2-yl}carbonyl)amino]phenoxy}cyclohexanecarboxylic acid]
